Laboratory results reported in patent US20250090626A1, “NEW PEPTIDE AND USES THEREOF” (Neo Cremar Co., Ltd., priority 2021, published 2025).
No end group written: not given here.

System: C2C12 cells
Experiment: Protein expression of myodifferentiation and sarcopenia factors (Western blot, immunocytochemistry)
Type: cell-based, mouse
Details: C2C12 myodifferentiation, peptide-treated vs untreated
Description: The medium of cultured C2C12 cells was removed and washed once with PBS. The washed cells were treated with 4% formaldehyde (Sigma), fixed for 15 minutes, then washed using PBS, added with 0.2% trypton X-100 (Sigma), and left for 5 minutes. After washing again using PBS, adding 1% normal goat serum, and leaving for 30 minutes, the primary antibody (MYOD, myogenin (MYOG):myosin light chain (MYL2); 1:50) was added to carry out a reaction at 4° C. for 14 hours. The antibodies were removed, washing was performed 3 times with PBS for 10 minutes, and then the cells were left with secondary antibody (Alexa Fluor 488 goat anti-Mouse & rabbit SFX kit t) for 1 hour. After 1 hour, the antibodies were removed, washing was performed with PBS for 10 minutes, the nuclei were stained with 4′,6-diamidino-2-phenylindol (DAPI), and the expression of the proteins was observed using fluorescence microscopy.
(1) The medium of cultured C2C12 cells was removed, followed by washing with PBS. After adding LIPA buffer and protease inhibitor to the washed cells, the proteins included in the supernatant were collected after centrifugation for 10 minutes at 12000 rpm. 40 μg of the extracted proteins were subjected to electrophoresis in 8 to 10% acrylamide gel and then transferred to a polyvinylidene fluoride (PVDF) membrane (Milipore). These were blocked with 3% skim milk or bovine serum albumin (BSA) at room temperature for 1 hour. Afterwards, primary antibody diluted in 1% skim milk or BSA (Pax7; 1:500, MYOD; 1:500, MYOG; 1:400, MYL2; 1:1000, MYH; 1:500, MSTN; 1:1000, β-actin; 1:1000, MuRF1; 1:400, and Atrogin; 1:1:400) was added and reacted at 4° C. for over 16 hours. After 16 hours, cells were washed three times with TBST (Tris-buffered saline with Tween 20) and reacted with secondary antibody with horseradish peroxidase (HRP) conjugated at room temperature for 1 hour. It was washed three times with TBST and developed after adding Super Signal West Pico Chemiluminescent Substrate.

Ac-VDFEAFWDWG [Ac-MIF1, MIF1 with N-terminus acetylated, 10 mer]
ACVRIIB protein expression: reduced | Atrogin1 protein expression: reduced | MSTN protein expression: reduced | MYH protein expression: increased | MYOD protein expression: increased | MYOG protein expression: increased
